ChEMBL document CHEMBL1909046, “DrugMatrix in vitro pharmacology data”

Tests used:
[1] = target: C-C chemokine receptor type 5 (Homo sapiens, UniProt P51681); assay type: cell membranes, HEK293, Membrane; also: in other assays of this panel Not Active means under 50% inhibition at 10 µM
[2] = DRUGMATRIX: Interleukin IL-1 radioligand binding (ligand: [125I] interleukin 1beta); assay type: cell membranes, Membrane; conditions: nih3t3; Not Active = under 50% inhibition at 10 µM
[3] = DRUGMATRIX: Calcium Channel Type L, Dihydropyridine radioligand binding (ligand: [3H] Nitrendipine); assay type: cell membranes, Rattus norvegicus, Wistar, Cerebral cortex, Membrane; conditions: Not Active = under 50% inhibition at 10 µM
[4] = target: T1, C-X-C chemokine receptor type 2 (Homo sapiens, UniProt P25025); assay type: cell membranes, CHO-K1, Membrane; also: in other assays of this panel Not Active means under 50% inhibition at 10 µM
T1 sequence (P25025 whole entry): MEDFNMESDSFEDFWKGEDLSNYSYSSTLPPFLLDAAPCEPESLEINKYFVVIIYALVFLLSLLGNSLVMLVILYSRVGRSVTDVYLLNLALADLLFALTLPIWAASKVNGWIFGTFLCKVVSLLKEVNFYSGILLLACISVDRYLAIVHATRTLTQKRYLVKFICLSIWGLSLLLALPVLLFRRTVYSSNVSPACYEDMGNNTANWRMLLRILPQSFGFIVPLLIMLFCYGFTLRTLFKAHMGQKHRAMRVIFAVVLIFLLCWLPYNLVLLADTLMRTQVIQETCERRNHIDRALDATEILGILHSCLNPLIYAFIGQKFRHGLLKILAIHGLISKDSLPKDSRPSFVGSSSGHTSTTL

[5] = target: cGMP-specific 3',5'-cyclic phosphodiesterase (Homo sapiens, UniProt O76074); experiment: DRUGMATRIX: Phosphodiesterase PDE5 enzyme inhibition (substrate: [3H]cGMP + cGMP); assay type: tissue-based, Platelet; conditions: Not Active = under 50% inhibition at 10 µM

C-C chemokine receptor type 5, sequence (P51681 whole entry): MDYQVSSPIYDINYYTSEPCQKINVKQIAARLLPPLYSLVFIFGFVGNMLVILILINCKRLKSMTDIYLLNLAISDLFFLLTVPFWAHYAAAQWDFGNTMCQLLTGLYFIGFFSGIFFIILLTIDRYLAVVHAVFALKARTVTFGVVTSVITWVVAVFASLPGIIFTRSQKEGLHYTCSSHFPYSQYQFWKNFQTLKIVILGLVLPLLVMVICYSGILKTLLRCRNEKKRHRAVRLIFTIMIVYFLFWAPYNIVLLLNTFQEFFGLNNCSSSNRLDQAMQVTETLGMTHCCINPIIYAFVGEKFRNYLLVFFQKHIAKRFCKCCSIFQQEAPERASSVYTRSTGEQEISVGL

| Compound | IC50 ([1]; hek293) | IC50 [2] | Ki [2] | IC50 [3] | Ki [3] | IC50 ([4]; cho-k1) | IC50 ([5]; platelet) | IC50 ([1]; read-out: IC50) [µM] | Ki ([1]; read-out: Ki) [µM] | IC50 ([4]; read-out: IC50) [µM] | Ki ([4]; read-out: Ki) [µM] | IC50 ([5]; read-out: IC50) [µM] | Ki ([1]; hek293) | Ki ([4]; cho-k1) | Ki ([5]; platelet) |
| --- | --- | --- | --- | --- | --- | --- | --- | --- | --- | --- | --- | --- | --- | --- | --- |
| CCOc1cc(N)c(Cl)cc1C(=O)NCC1CN(Cc2ccc(F)cc2)CCO1 (centres undefined) [MOSAPRIDE] | Not Active | Not Active | Not Active | Not Active | Not Active | Not Active | Not Active | – | – | – | – | – | – | – | – |
| O=C(c1ccccc1)c1ccc2n1CCC2C(=O)O (centres undefined) [KETOROLAC] | Not Active | Not Active | Not Active | Not Active | Not Active | Not Active | Not Active | – | – | – | – | – | – | – | – |
| Nc1nc(N)c2nc(-c3ccccc3)c(N)nc2n1 | Not Active | Not Active | Not Active | Not Active | Not Active | Not Active | Not Active | – | – | – | – | – | – | – | – |
| Oc1ccc(/C=C/c2cc(O)cc(O)c2)cc1 [RESVERATROL] | Not Active | Not Active | Not Active | Not Active | Not Active | Not Active | Not Active | – | – | – | – | – | – | – | – |
| Cc1ccnc(NS(=O)(=O)c2ccc(N)cc2)n1 [SULFAMERAZINE] | Not Active | Not Active | Not Active | Not Active | Not Active | Not Active | Not Active | – | – | – | – | – | – | – | – |
| CCN1CCCC1CNC(=O)c1cc(S(N)(=O)=O)ccc1OC (centres undefined) [SULPIRIDE] | Not Active | Not Active | Not Active | Not Active | Not Active | Not Active | Not Active | – | – | – | – | – | – | – | – |
| O=C1CC[C@@]2(O)[C@H]3Cc4ccc(O)c5c4[C@@]2(CCN3CC2CC2)[C@H]1O5 [NALTREXONE] | Not Active | Not Active | Not Active | Not Active | Not Active | Not Active | Not Active | – | – | – | – | – | – | – | – |
| CCN(CC)C(=S)SSC(=S)N(CC)CC | – | Not Active | Not Active | Not Active | Not Active | – | Not Active | 23.7 | 18.3 | 6.01 | 4.21 | – | – | – | – |
| O=C(OC[C@H]1O[C@@H](OC(=O)c2cc(O)c(O)c(OC(=O)c3cc(O)c(O)c(O)c3)c2)[C@H](OC(=O)c2cc(O)c(O)c(OC(=O)c3cc(O)c(O)c(O)c3)c2)[C@@H](OC(=O)c2cc(O)c(O)c(OC(=O)c3cc(O)c(O)c(O)c3)c2)[C@@H]1OC(=O)c1cc(O)c(O)c(OC(=O)c2cc(O)c(O)c(O)c2)c1)c1cc(O)c(O)c(OC(=O)c2cc(O)c(O)c(O)c2)c1 [TANNIC ACID] | Not Active | Not Active | Not Active | Not Active | Not Active | Not Active | – | – | – | – | – | 4.7 | – | – | – |
| C=CCc1ccc2c(c1)OCO2 [SAFROLE] | Not Active | Not Active | Not Active | Not Active | Not Active | Not Active | Not Active | – | – | – | – | – | – | – | – |
| C#C[C@]1(O)CC[C@H]2[C@@H]3[C@H](C)CC4=C(CCC(=O)C4)[C@H]3CC[C@@]21C [TIBOLONE] | Not Active | Not Active | Not Active | Not Active | Not Active | Not Active | Not Active | – | – | – | – | – | – | – | – |
| CC[C@@]1(O)C(=O)OCc2c1cc1n(c2=O)Cc2cc3c(CN(C)C)c(O)ccc3nc2-1 [TOPOTECAN] | Not Active | Not Active | Not Active | Not Active | Not Active | Not Active | Not Active | – | – | – | – | – | – | – | – |
| CC1(C)[C@H](C(=O)O)N2C(=O)C[C@H]2S1(=O)=O [SULBACTAM] | Not Active | Not Active | Not Active | Not Active | Not Active | Not Active | Not Active | – | – | – | – | – | – | – | – |
| CCN(CC)N=O [N-NITROSODIETHYLAMINE] | Not Active | Not Active | Not Active | Not Active | Not Active | Not Active | Not Active | – | – | – | – | – | – | – | – |
| C[C@]12CCC(=O)C[C@@H]1CC[C@@H]1[C@@H]2CC[C@]2(C)[C@@H](O)CC[C@@H]12 [STANOLONE] | Not Active | Not Active | Not Active | Not Active | Not Active | Not Active | Not Active | – | – | – | – | – | – | – | – |
| Cc1cccc(C)c1NC(=O)C(C)N (centres undefined) [TOCAINIDE] | Not Active | Not Active | Not Active | Not Active | Not Active | Not Active | Not Active | – | – | – | – | – | – | – | – |
| LEAD(IV) ACETATE | Not Active | Not Active | Not Active | Not Active | Not Active | Not Active | Not Active | – | – | – | – | – | Not Active | Not Active | Not Active |
